≈ marks a conversion by molar mass, not a printed value. Where two headings read alike, the source gives them in different places.
Assays:
P. aeruginosa 125A = experiment: MIC, CLSI broth microdilution in BD Phoenix AST Broth; type: cell-based, Pseudomonas aeruginosa; details: strain 125A
P. aeruginosa 125B = experiment: as above; type: cell-based, Pseudomonas aeruginosa; details: strain 125B
P. aeruginosa 41A = experiment: as above; type: cell-based, Pseudomonas aeruginosa; details: strain 41A
P. aeruginosa 41B = experiment: as above; type: cell-based, Pseudomonas aeruginosa; details: strain 41B
P. aeruginosa PAO1 [1] = experiment: as above; type: cell-based, Pseudomonas aeruginosa; details: for MIC: Pseudomonas aeruginosa
P. aeruginosa PAOUW [2] = experiment: as above; type: cell-based, Pseudomonas aeruginosa; details: strain PAOUW; for MIC: agent alone, 37°C, 18–22 h, three biological replicates
P. aeruginosa PAOUW∆oprF = experiment: as above; type: cell-based, Pseudomonas aeruginosa
P. aeruginosa PAOΔmexR = experiment: as above; type: cell-based, Pseudomonas aeruginosa; details: strain PAOΔmexR
P. aeruginosa PAOΔmexZ = experiment: as above; type: cell-based, Pseudomonas aeruginosa; details: strain PAOΔmexZ; for MIC: agent alone, 37°C, 18–22 h, three biological replicates
P. aeruginosa PAOΔoprM = experiment: as above; type: cell-based, Pseudomonas aeruginosa
P. aeruginosa PAO1 [3] = experiment: Checkerboard assay with RW01; type: cell-based, Pseudomonas aeruginosa
Procedure: (§1) To assess the in vitro interaction between RW01 and tetracyclines, the checkerboard assay method was performed in 96-well microtiter plates using strains PAO1 and PAOUW. In the same way as for MIC determination, BD Phoenix AST Broth (Becton Dickinson) medium was used for bacterial growth. Minocycline and tigecycline combined with RW01 were the agents selected for the assay. A column and a row of wells in the checkerboard plate were reserved for controls of each antimicrobial individually to ensure the proper concentration of the agents. Positive and negative controls were also included. Wells in rows contained serial dilutions of RW01 starting from 512 mg/L, while those in columns varied in concentrations of the antibiotic. Inoculum at ~5 × 10⁵ CFU/mL, antibiotic, RW01, and AST broth were added to a final volume of 200 µL. Plates were incubated at 37°C for 18–22 h under aerobic conditions. Three biological replicates were obtained. Fractional inhibitory concentration index (FICI) is defined as the summatory of fractional inhibitory concentrations (FICs) from compound A: RW01, and compound B: minocycline/tigecycline. FICs were calculated as:
(§2) FIC of RW01 (FICRW01)=MIC of RW01 in combination/MIC of RW01 alone,FIC of antibiotic (FICATB)=MIC of ATB in combination/MIC of ATB alone,FICI=FICRW01 +FICATB.
(§3) FICI was interpreted as follows: synergistic effect if FICI is ≤0.5; additive effect if 0.5 < FICI ≤ 1.0; indifferent effect if 1.0 < FICI ≤ 2.0; and finally, antagonistic effect if FICI is >2.0. The average FICI considering the antibiotic MIC (no growth in any of the replicates) at different concentrations of RW01 was calculated ([28]).

P. aeruginosa PAOUW [4] = experiment: Checkerboard assay with RW01; type: cell-based, Pseudomonas aeruginosa
Procedure: as §1, §2, §3

[5] = tested on: PAO1 mutant MIN2_RW01_2, pmrB(M292T); experiment: MIC, E-test on MHA; type: cell-based; details: Pseudomonas aeruginosa, PAO1, read-out: MIC, E-test
[6] = tested on: PAO1 mutant MIN2_RW01_3, parS(V152A); experiment: MIC, E-test on MHA; type: cell-based; details: Pseudomonas aeruginosa, PAO1, read-out: MIC, E-test
[7] = tested on: PAO1 mutant MIN4_RW01_4, pmrB(Y98N); experiment: MIC, E-test on MHA; type: cell-based; details: Pseudomonas aeruginosa, PAO1, read-out: MIC, E-test
[8] = tested on: PAO1 mutant MIN8_1, nalD(R3C), pilM(Q62X); experiment: MIC, E-test on MHA; type: cell-based; details: Pseudomonas aeruginosa, PAO1, read-out: MIC, E-test
[9] = tested on: PAO1 mutant MIN8_2, pilZ(nt18InsT); experiment: MIC, E-test on MHA; type: cell-based; details: Pseudomonas aeruginosa, PAO1, read-out: MIC, E-test
[10] = tested on: PAO1 mutant MIN8_3, pilZ(nt18InsT); experiment: MIC, E-test on MHA; type: cell-based; details: Pseudomonas aeruginosa, PAO1, read-out: MIC, E-test
[11] = tested on: PAO1 mutant MIN16_1, nalD(T43P); experiment: MIC, E-test on MHA; type: cell-based; details: Pseudomonas aeruginosa, PAO1, read-out: MIC, E-test
[12] = tested on: PAO1 mutant MIN16_3, nfxB(nt79∆14), pilB(N349K); experiment: MIC, E-test on MHA; type: cell-based; details: Pseudomonas aeruginosa, PAO1, read-out: MIC, E-test
[13] = Pseudomonas aeruginosa, agent alone, 37°C, 18–22 h, three biological replicates
[14] = MIC of the antibiotic with fixed 100 mg/L RW01
[15] = antibiotic MIC alone vs with RW01 100 mg/L
[16] = antibiotic with RW01 at 100 mg/L
[17] = strain PAO1, antibiotic with RW01 at 100 mg/L
[18] = strain PAOUWΔoprF (printed PAOΔoprF), antibiotic with RW01 at 100 mg/L
[19] = strain PAOΔoprM, antibiotic with RW01 at 100 mg/L
[20] = antibiotic combined with RW01, checkerboard, AST broth, 37°C, 18–22 h, three biological replicates

CN(C)c1cc(NC(=O)CNC(C)(C)C)c(O)c2c1C[C@H]1C[C@H]3[C@H](N(C)C)C(O)=C(C(N)=O)C(=O)[C@@]3(O)C(O)=C1C2=O [Tigecycline, tigecycline]
MIC (P. aeruginosa 125A; [13]): 8 µg/mL | Antibiotic MIC + RW01 100 mg/L (P. aeruginosa 125A; [14]): 1 µg/mL | Potentiation (fold) (P. aeruginosa 125A; [15]): 8 fold | FICI (P. aeruginosa 125A; [16]): 0.320 | FICI-determined effect (P. aeruginosa 125A; [16]): Synergy (synergistic effect if FICI is ≤0.5) | MIC (P. aeruginosa 125B; [13]): 8 µg/mL | Antibiotic MIC + RW01 100 mg/L (P. aeruginosa 125B; [14]): 1 µg/mL | Potentiation (fold) (P. aeruginosa 125B; [15]): 8 fold | FICI (P. aeruginosa 125B; [16]): 0.320 | FICI-determined effect (P. aeruginosa 125B; [16]): Synergy (synergistic effect if FICI is ≤0.5) | MIC (P. aeruginosa 41A; [13]): 8 µg/mL | Antibiotic MIC + RW01 100 mg/L (P. aeruginosa 41A; [14]): 2 µg/mL | Potentiation (fold) (P. aeruginosa 41A; [15]): 4 fold | FICI (P. aeruginosa 41A; [16]): 0.348 | FICI-determined effect (P. aeruginosa 41A; [16]): Synergy (synergistic effect if FICI is ≤0.5) | MIC (P. aeruginosa 41B; [13]): 8 µg/mL | Antibiotic MIC + RW01 100 mg/L (P. aeruginosa 41B; [14]): 2 µg/mL | Potentiation (fold) (P. aeruginosa 41B; [15]): 4 fold | FICI (P. aeruginosa 41B; [16]): 0.348 | FICI-determined effect (P. aeruginosa 41B; [16]): Synergy (synergistic effect if FICI is ≤0.5) | MIC (P. aeruginosa PAO1 [1]; PAO1): 8 µg/mL | MIC (P. aeruginosa PAO1 [1]; PAO1, strain PAO1, agent alone, 37°C, 18–22 h, three biological replicates, read-out: MIC): 2 µg/mL | Antibiotic MIC + RW01 100 mg/L (P. aeruginosa PAO1 [1]; strain PAO1, MIC of the antibiotic with fixed 100 mg/L RW01): 2 µg/mL | Potentiation (fold) (P. aeruginosa PAO1 [1]; strain PAO1, antibiotic MIC alone vs with RW01 100 mg/L): 4 fold | FICI (P. aeruginosa PAO1 [1]; [17]): 0.445 | FICI-determined effect (P. aeruginosa PAO1 [1]; [17]): Synergy (synergistic effect if FICI is ≤0.5) | MIC (P. aeruginosa PAOUW [2]; Pseudomonas aeruginosa, read-out: MIC): 8 µg/mL | Antibiotic MIC + RW01 100 mg/L (P. aeruginosa PAOUW [2]; [14]): 1 µg/mL | MIC (P. aeruginosa PAOUW [2]): 4 µg/mL | Potentiation (fold) (P. aeruginosa PAOUW [2]; [15]): 4 fold | FICI (P. aeruginosa PAOUW [2]; [16]): 0.348 | FICI-determined effect (P. aeruginosa PAOUW [2]; [16]): Synergy (synergistic effect if FICI is ≤0.5) | Potentiation (fold) (P. aeruginosa PAOUW∆oprF; strain PAOUWΔoprF (printed PAOΔoprF), antibiotic MIC alone vs with RW01 100 mg/L): 8 fold | FICI (P. aeruginosa PAOUW∆oprF; [18]): 0.223 | FICI-determined effect (P. aeruginosa PAOUW∆oprF; [18]): Synergy (synergistic effect if FICI is ≤0.5) | MIC (P. aeruginosa PAOUW∆oprF; strain PAOUWΔoprF, agent alone, 37°C, 18–22 h, three biological replicates): 16 µg/mL | Antibiotic MIC + RW01 100 mg/L (P. aeruginosa PAOΔmexR; [14]): 1 µg/mL | Potentiation (fold) (P. aeruginosa PAOΔmexR; [15]): 8 fold | FICI (P. aeruginosa PAOΔmexR; [16]): 0.223 | FICI-determined effect (P. aeruginosa PAOΔmexR; [16]): Synergy (synergistic effect if FICI is ≤0.5) | MIC (P. aeruginosa PAOΔmexZ; Pseudomonas aeruginosa): 16 µg/mL | MIC (P. aeruginosa PAOΔmexZ): 8 µg/mL | Potentiation (fold) (P. aeruginosa PAOΔmexZ; [15]): 8 fold | FICI (P. aeruginosa PAOΔmexZ; [16]): 0.223 | FICI-determined effect (P. aeruginosa PAOΔmexZ; [16]): Synergy (synergistic effect if FICI is ≤0.5) | MIC (P. aeruginosa PAOΔoprM; Pseudomonas aeruginosa): 1 µg/mL | Antibiotic MIC + RW01 100 mg/L (P. aeruginosa PAOΔoprM; strain PAOΔoprM, MIC of the antibiotic with fixed 100 mg/L RW01): 1 µg/mL | Potentiation (fold) (P. aeruginosa PAOΔoprM; strain PAOΔoprM, antibiotic MIC alone vs with RW01 100 mg/L): 1 fold | FICI (P. aeruginosa PAOΔoprM; [19]): 1.098 | FICI-determined effect (P. aeruginosa PAOΔoprM; [19]): Indifference (indifferent effect if 1.0 < FICI ≤ 2.0) | interaction with RW01 (checkerboard) (P. aeruginosa PAO1 [3]): additive | average FIC Index (P. aeruginosa PAO1 [3]; [20]): 0.677 | interaction with RW01 (checkerboard) (P. aeruginosa PAOUW [4]): synergistic | average FIC Index (P. aeruginosa PAOUW [4]; [20]): 0.446 | MIC [5]: 16 µg/mL (≈ 27.3 µM) | MIC [6]: 48 µg/mL (≈ 82 µM) | MIC [7]: 32 µg/mL (≈ 54.6 µM) | MIC [8]: 32 µg/mL (≈ 54.6 µM) | MIC [9]: 32 µg/mL (≈ 54.6 µM) | MIC [10]: 16 µg/mL (≈ 27.3 µM) | MIC [11]: 16 µg/mL (≈ 27.3 µM) | MIC [12]: 48 µg/mL (≈ 82 µM)

— article PMC11823630, “In vitro potentiation of tetracyclines in Pseudomonas aeruginosa by RW01, a new cyclic peptide” (Antimicrobial Agents and Chemotherapy, 2024)
